The values below come from patent US5677324A, “Benzopyranes as potassium channel openers” (Pfizer Inc., priority 1993, dated 1997).

SMILES strings stand for the structures.

In general, IC50 refers to the concentration that gives 50% inhibition.

This experiment relates to guinea pig tracheal ring preparations. Put plainly: in vitro relaxation of guinea pig tracheal ring preparations (smooth muscle relaxant activity). In kind it is cell-based. As to conditions: Cavia porcellus; relaxation of KCl (20 mM)-contracted tracheal strips, Krebs solution, 37° C.; reversal to pretreatment base line = 100 percent relaxation. The text has this: The compounds of the formula (I) have smooth muscle relaxant activity since they are able to open potassium channels in such tissue. They can be tested for smooth muscle relaxant activity by a method involving measuring the in vitro relaxation of guinea pig tracheal ring preparations as follows:
Male guinea pigs (500-600 g) were killed by a blow to the head and exsanguinated. The trachea was removed, placed in Krebs solution and cleaned. The trachea was slit through the cartilage along it's longitudinal axis and strips consisting of four adjacent cartilage rings were prepared. The strips were each placed in a water-jacketed organ bath (37° C.) containing Krebs solution and tied to a force-displacementtransducer for the measurement of isometric tension responses. The tissues were equilibrated for 60 minutes under a resting load of 1 g and washed every 15 minutes before the start of each experiment.
The composition of the Krebs solution was as follows (millimoles):- NaCl (119); KCl (4.7); NaHCO3 (25); KH2 PO4 (1.2); MgSO4 (1.2); CaCl2 (2.5); glucose (11), and indomethacin (2.8 μM) was added to remove the influence of the endogenous prostanoids. The solution was gassed with 95% O2 /5% CO2 and the temperature was kept constant at 37° C.
After the equilibration period a priming dose of KCl (20 mM) was added to each tissue bath and after a further 20 minutes the tissue was washed. After a further 30 minutes KCl (20 mM) was added to contract each tissue. The relaxant action of a compound of the formula (I) was examined when the maintained contractile response had stabilized. The compounds can be added cumulatively (10^-8 -10^-5 […]) at 5 minute intervals.
The reversal to pretreatment base line was taken as 100 percent relaxation in these studies and concentration-relaxation curves were constructed in order to obtain IC50 values for potency.
A selection of the compounds of the preceding Examples was tested for smooth muscle relaxant activity by the method involving measuring the in vitro relaxation of guinea pig tracheal ring preparations as described on pages 31 and 32 of the description.

In the case of `CC1(C)Oc2ccc(-c3nnnn3CCc3ccccc3)cc2[C@@H](N2CCCCC2=O)[C@@H]1O` (relative stereo) [Example 35], the IC50 was found to be 40 nM.

In the case of `Cn1nnnc1-c1ccc2c(c1)[C@@H](N1CCCCC1=O)[C@H](O)C(C)(C)O2` (relative stereo) [Example 36], the IC50 was 68 nM.

For `Cn1nnnc1-c1ccc2c(c1)[C@@H](Oc1ccc(=O)[nH]n1)[C@](C)(O)C(C)(C)O2` [Example 3], the IC50 is 150 nM.

Regarding `CC1(C)Oc2ccc(-c3nnnn3CCc3ccccc3)cc2C(Oc2ccc(=O)[nH]n2)C1(C)O` (centres unmarked) [Example 7], the IC50 was 440 nM.

On to `CCOC(=O)CCCCn1nnnc1-c1ccc2c(c1)[C@@H](Oc1ccc(O)nn1)[C@](C)(O)C(C)(C)O2` [Example 11, (3S,4R)-3,4-dihydro-6-(1-[4-ethoxycarbonylbut-1-yl]-1H-tetrazol-5-yl)-3-hydroxy-4-(3-hydroxypyridazin-6-yl)oxy-2,2,3-trimethyl-2H-benzo[b]pyran], for which the IC50 amounted to 120 nM.
